According to patent EP0211183A2, “Use of ubidecarenone(ubiquinone-10) as an antichromatotic agent” (Eisai Co., Ltd., priority 1985, dated 1987):
Read-outs that look alike come from different tables or passages of the source.

Columns and labels:
[1] = test system: Wister rats; assay: Acute toxicity, various dosage pathways, 7-day lethality, LD50 by Litchfield-Wilcoxon; type: in vivo; conditions: rats
Protocol: (§1) The acute toxicity of the present substance was investigated in various dosage pathways by the use of Wister rats and ICR-JCL mice. For the peroral or endermic dosage, the present substance was dissolved in a distilled water and the resulting solution was used. For the other dosages, the present substance was dissolved in a physiological salt solution and the resulting solution was dosed with a stomach conductor or an injector. In each dosage, a determined amount of the substance was regulated and properly dosed.
(§2) After the dosage, the expression of toxicopathy was continuously observed, and the lethality with the lapse of time for 7 days was measured and the value of LDSO was obtained therefrom. Both the tested animals as living and the tested animals as died were dissected for observation. LD50 was calculated on the basis of Litchfield-Wilcoxon figure-calculation method.

[2] = test system: ICR-JCL mice; assay: as above; type: in vivo; conditions: mice
Protocol: as §1, §2

[3] = as above; type: in vivo, ICR-JCL mice; conditions: in vivo, read-out: LD50 value (95% confidence limit)
Protocol: as §1, §2

[4] = test system: guinea pigs; assay: Sensitization, maximization test by Magnusson and Kligman; type: in vivo; conditions: challenge on day 21, sealed 24 hours
Protocol: This was tested in accordance with a maximization test by Magnusson B. and Kligman, A.M. The test is as follows:
Twenty guinea pigs were prepared for the test, ten being for the induction and the other ten being for the control in the challenge. The suprascapular part of the guinea pig was clipped and shaved in the area of 4cm x 6cm, and the following three pairs of hypodermic injections (a), (b) and (c) were imparted simultaneously to both the right and left parts as being symmetrical about the median line. • (a) Each 0.05ml of FCA to two points in both the right and left parts, totalling O.lml in all. • (b) Each 0.05ml of the test substance to two points in both the right and left parts, in the form of an aqueous solution (content of test substance: 10X). • (c) Each 0.05ml of FCA as containing the test substance emulsion to two points in both the right and left parts.
After one week from the hypodermic injection, the suprascapular part was again clipped and vaseline containing 10X of sodium laurylsulfate was applied thereover thereby to cause a slight inflammation on the applied part. By this treatment, the sensitization was intensified. Next, the test substance was applied to this part, which was thereafter airtightly sealed. […]

[5] = at the dosages of Table-1, 7 days

SMILES: COC1=C(OC)C(=O)C(CC=C(C)CCC=C(C)CCC=C(C)CCC=C(C)CCC=C(C)CCC=C(C)CCC=C(C)CCC=C(C)CCC=C(C)CCC=C(C)C)=C(C)C1=O [ubiquinone-10]
- general condition, weight, amount of feed intake, observation in dissection ([1]; at the dosages of Table-1): no abnormal change was found
- lethality [1, 5]: no animals as tested died
- general condition, weight, amount of feed intake, observation in dissection ([2]; at the dosages of Table-1): no abnormal change was found
- lethality [2, 5]: no animals as tested died
- LD50 at 168 h ([3]; mouse, im, mice (male, female), Intramuscular): 500 mg/kg
- LD50 at 168 h ([3]; mouse, ip, mice (male, female), Intra-abdominal): 1500 mg/kg
- LD50 at 168 h ([3]; mouse, po, mice (male, female), Peroral): 4000 mg/kg
- LD50 at 168 h ([3]; mouse, sc, mice (male, female), Hypodermic): 500 mg/kg
- LD50 at 168 h ([3]; mouse, mice (male, female), Endermic): 4000 mg/kg
- LD50 at 168 h ([3]; mouse, mice (male, female), Intravenous): 250 mg/kg
- LD50 at 168 h ([3]; rat, im, rats (male, female), Intramuscular): 500 mg/kg
- LD50 at 168 h ([3]; rat, ip, rats (male, female), Intra-abdominal): 1500 mg/kg
- LD50 at 168 h ([3]; rat, po, rats (male, female), Peroral): 4000 mg/kg
- LD50 at 168 h ([3]; rat, sc, rats (male, female), Hypodermic): 500 mg/kg
- LD50 at 168 h ([3]; rat, rats (male, female), Endermic): 4000 mg/kg
- LD50 at 168 h ([3]; rat, rats (male, female), Intravenous): 250 mg/kg
- sensitization reaction [4]: No sensitization reaction
